In patent publication US4342780A, “Method of depleting endogenous monoamines” (Merrell-Toraude et Cie, priority 1981, dated 1982):

What was measured:
AADC [1] = target: T1, AADC (Sus scrofa, UniProt P80041); assay: In vitro AADC inhibition: time of 90% inactivation (14CO2 trapping, DL-[1-14C]-dopa substrate); format: biochemical, hog; parameters: key to RATING: ++++: The relative activities of the compounds are rated by the given number of "plus" signs; +++: The relative activities of the compounds are rated by the given number of "plus" signs; 0-+: The relative activities of the compounds are rated by the given number of "plus" signs; details: CONC. 100 μM
T1 sequence (P80041 1-486): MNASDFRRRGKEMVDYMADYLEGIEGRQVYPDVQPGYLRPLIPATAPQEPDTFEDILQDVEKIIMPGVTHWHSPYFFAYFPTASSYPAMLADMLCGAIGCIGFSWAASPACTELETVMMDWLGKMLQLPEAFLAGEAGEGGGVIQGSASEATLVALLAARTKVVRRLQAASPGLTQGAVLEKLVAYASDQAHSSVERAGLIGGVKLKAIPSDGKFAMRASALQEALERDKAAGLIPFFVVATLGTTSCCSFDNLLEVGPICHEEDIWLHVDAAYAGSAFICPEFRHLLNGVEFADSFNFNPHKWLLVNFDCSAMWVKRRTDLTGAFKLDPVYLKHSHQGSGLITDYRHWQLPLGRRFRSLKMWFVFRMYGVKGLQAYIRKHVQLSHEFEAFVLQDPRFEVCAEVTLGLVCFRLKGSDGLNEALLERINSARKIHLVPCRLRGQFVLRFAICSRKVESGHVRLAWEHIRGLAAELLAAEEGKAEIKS
Method: AADC can be purified from hog kidney by the general method of J. Christenson et al. Archs. Biochem. Biophys., 141, 356 (1970) and G. Lancaster et al., Can. J. Biochem., 50, 791 (1972), and the specific activity of the enzyme is determined by the ^14 CO2 trapping method using DL-[1-^14 C]-dopa as the substrate (see Christenson et al.). One unit of activity is defined as the total amount of enzyme which produces 1 n mol of CO2 per minute, with DL-[1-^14 C]-dopa as substrate.
To 100 μl of 50 mM-phosphate buffer pH 7.4 containing 100 mM-mercapto-ethanol are added 5 μl of an aqueous solution containing the test compound at the desired concentration and 50 μl of an aqueous solution containing 2 units of AADC. The mixture is incubated at 37° C. and 20 μl aliquots are removed at various times. The AADC activity remaining in each aliquot is measured by the CO2 trapping method of Christenson.
The relative activities of the compounds are rated by the given number of "plus" signs.

AADC [2] = assay: Ex vivo AADC activity in organs of mice after repeated i.p. doses (Table II); parameters: species or system mice (Swiss Albino); details: three days, 12 h after 6th dose, vs control
Method: (§1) The test animals (e.g. mice or rats) are given the test compound in a suitable vehicle, either orally or by injection, each day over the period of time desired. The animals are kept on a constant time cycle, and body weights are measured daily. The animals are sacrificed by decapitation 12 to 24 hours after receiving the last dose of the test compound. Control animals receive the vehicle alone.
(§2) Immediately after death, the organs (brain, heart, and kidney) are removed and homogenized either in 50 ml phosphate buffer pH 6.8 for AADC determination or in ice-cold 0.4 M HClO4 containing 0.05% (w/v) EDTA and 0.1% (w/v) sodium bisulfite for catecholamine determination. AADC activity is determined by the ^14 CO2 trapping method of J. Christenson, supra (see Example 14) using DL-[1-^14 C]-dopa as the substrate. Catecholamines are determined by centrifuging the homogenate, adding the supernatant to alumina buffered to pH 8.0-8.4 to adsorb the catecholamines, re-extracting the catecholamines from the alumina with 0.2 M HClO4 and determining the catecholamines in the extracts using known procedures, such as by reversed-phase ion-pair HPLC with electrochemical detection.
(§3) Table II, shown below, sets forth the results obtained by testing particular compounds of Formula I in the above-described procedure in mice (Swiss Albino) after i.p. administration of the compound twice daily for three days: […]

[3] = tested on: catecholamine content (norepinephrine, dopamine); assay: Catecholamine content in organs of mice after repeated i.p. doses (Table II); format: in vivo, mice (Swiss Albino); details: three days, 12 h after 6th dose, vs control
Method: as §1, §2, §3

AADC [4] = assay: AADC inhibition in organs of fasted rats after a single dose; format: in vivo; details: 16 h
Method: as §1, §2
(§4) In the brain, doses of 10 mg/kg and 200 mg/kg produced a 10% reduction and a 70-80% reduction of AADC activity, respectively. […] In the heart, no reduction of norepinephrine is noted up to a dose of 200 mg/kg. When tested after multiple administration of 10, 25, or 50 mg/kg given daily for six days in rats sacrificed 24 hours after the sixth dose, the compound produced a 50% decrease in brain norephinephrine at a dose of 10 mg/kg (daily). […] Serotonin (5-HT) levels, as assessed by standard techniques, are not altered in the brain even at the highest dose tested. Heart norepinephrine is reduced by only 20% at the highest dose.

[5] = tested on: catecholamine levels (norepinephrine, dopamine); assay: Catecholamine levels in organs of fasted rats after a single dose; format: in vivo; details: 16 h
Method: as §1, §2, §4

[6] = tested on: catecholamine levels (norepinephrine, dopamine) and serotonin (5-HT); assay: Catecholamine and serotonin levels in organs of rats after daily doses for six days; format: in vivo
Method: as §1, §2, §4

[7] = tested on: endogenous catecholamine and 5-HT levels; assay: Effect on endogenous catecholamine and 5-HT levels in brain and heart (general statement); format: in vivo
[8] = tested on: catecholamine levels (dopamine, noradrenaline); assay: Effect of dopamine injection on catecholamine levels in heart and brain of mice treated with test compound (Table VI); format: in vivo, Male albino mice
Method: Saline solution is used as a control. The mice are sacrificed and the catecholamines, dopamine and noradrenaline, and serotonin (5-hydroxytryptamine) are determined by reverse-phase ion-pair high pressure liquid chromatography using electrochemical detection. […] Twelve hours after the second dose, one group of animals received an i.p. injection of 50 mg/kg of dopamine-HCl (Sigma, Chem. Co), the other group received saline instead. Three hours after the dopamine injection, the animals were killed and catecholamines were measured in heart and brain as described in Example 18.

NC(CF)(Cc1cccc(O)c1)C(=O)O (centres unmarked) [Example 3-OH-phenyl, 2-Amino-2-fluoromethyl-3-(3-hydroxyphenyl)propionic acid]
TIME OF 90% INACTIVATION (AADC [1]; pH 7.4, 37° C.): 4 min | RATING (AADC [1]; relative activity): +++ | % CHANGE AADC Brain (AADC [2]; 10 mg/kg i.p. twice daily): -80% | % CHANGE AADC Kidney (AADC [2]; 10 mg/kg i.p. twice daily): -78% | % CHANGE AADC Brain (AADC [2]; 100 mg/kg i.p. twice daily): -95% | % CHANGE AADC Kidney (AADC [2]; 100 mg/kg i.p. twice daily): -96% | % CHANGE NOREPINEPHRINE Brain ([3]; 10 mg/kg i.p. twice daily, * not significant): -34% | % CHANGE NOREPINEPHRINE Heart ([3]; 10 mg/kg i.p. twice daily, * not significant (-25*, -7*)): 0% | % CHANGE DOPAMINE Brain ([3]; 10 mg/kg i.p. twice daily, * not significant (-25*, -9*)): 0% | % CHANGE NOREPINEPHRINE Brain ([3]; 100 mg/kg i.p. twice daily): -77% | % CHANGE NOREPINEPHRINE Heart ([3]; 100 mg/kg i.p. twice daily): -49% | % CHANGE DOPAMINE Brain ([3]; 100 mg/kg i.p. twice daily, * not significant (-35*)): -75%

COC(=O)C(N)(CF)Cc1ccc(O)cc1 (centres unmarked) [Methyl 2-amino-2-fluoromethyl-3-(4-hydroxyphenyl)propionate]
reduction of AADC activity in the brain (AADC [4]; 10 mg/kg single dose): 10% | AADC activity in kidney, liver, and adrenals (AADC [4]; 50 mg/kg single dose): marked decrease | AADC inhibition in kidney, liver, and adrenals (AADC [4]; 100 mg/kg single dose): Complete inhibition | reduction of AADC activity in the brain (AADC [4]; 200 mg/kg single dose): 70-80% | AADC activity in the heart (AADC [4]; up to 200 mg/kg single dose): not reduced significantly | Brain norepinephrine decrease ([5]; 10 mg/kg single dose): 15-20% | dopamine decrease (brain) ([5]; 50 mg/kg single dose): decreased significantly | Brain norepinephrine decrease ([5]; 200 mg/kg single dose): 50% | dopamine decrease (brain) ([5]; 200 mg/kg single dose): 75% | reduction of norepinephrine in the heart ([5]; up to 200 mg/kg single dose): no reduction | decrease in brain norepinephrine ([6]; 10 mg/kg daily for six days, 24 h after sixth dose): 50% | Brain dopamine decrease ([6]; 50 mg/kg daily for six days, 24 h after sixth dose): 50% | decrease in brain norepinephrine, response at higher doses ([6]; 25 or 50 mg/kg daily for six days (above 10 mg/kg), 24 h after sixth dose): do not give an additional response | Brain dopamine, effect at lower doses ([6]; below 50 mg/kg (10, 25) daily for six days, 24 h after sixth dose): no significant effect | Serotonin (5-HT) levels in the brain ([6]; even at the highest dose tested, daily for six days): not altered | Heart norepinephrine reduction ([6]; highest dose (50 mg/kg) daily for six days, 24 h after sixth dose): 20% | endogenous 5-HT levels in the brain [7]: not altered | endogenous catecholamine levels in brain and heart [7]: lower engenous catecholamine levels in the brain but not in the heart

NCCc1ccc(O)c(O)c1 [dopamine, reference compound]
depletion of noradrenaline in the heart achieved by the test-compound ([8]; effect of dopamine injection 50 mg/kg i.p.): reversed totally | depletion of amines in the central nervous system ([8]; effect of exogenous dopamine 50 mg/kg i.p.): not affected
